Experimental data reported in PubChem BioAssay AID1557 (Sanford-Burnham Center for Chemical Genomics, 2009).
The source made the active and inactive calls. The rule behind the calls is not given here.

Tested on: PAMPA artificial membrane permeability, UV readout, 30 min
Experiment: PAMPA effective permeability – biophysical, pH 7.4, 6.2, 5.0, ADME assay, late-stage follow-up (AID 1557)
Details: at 50 µM, stronger effect = higher value

## C=CCn1c(SCC(=O)c2ccc(O)c(O)c2)nnc1-c1ccccc1OC
  effective permeability pH 7.4: 58 10-6 cm/s (inactive)
Measured here: permeability at pH 5.0
  effective permeability pH 5.0: 90 10-6 cm/s
Measured here: permeability at pH 6.2
  effective permeability pH 6.2: 98 10-6 cm/s
